{
  "source": "patent US7090853B2",
  "about": "“Noscapine derivatives as adjuvant compositions and methods of use thereof” (Emory University, priority 1999, dated 2006)",
  "key": {"bovine brain tubulin": {"molecular_target": "bovine brain tubulin (Bos taurus, UniProt P81947+Q6B856)", "sequence (P81947 whole entry)": "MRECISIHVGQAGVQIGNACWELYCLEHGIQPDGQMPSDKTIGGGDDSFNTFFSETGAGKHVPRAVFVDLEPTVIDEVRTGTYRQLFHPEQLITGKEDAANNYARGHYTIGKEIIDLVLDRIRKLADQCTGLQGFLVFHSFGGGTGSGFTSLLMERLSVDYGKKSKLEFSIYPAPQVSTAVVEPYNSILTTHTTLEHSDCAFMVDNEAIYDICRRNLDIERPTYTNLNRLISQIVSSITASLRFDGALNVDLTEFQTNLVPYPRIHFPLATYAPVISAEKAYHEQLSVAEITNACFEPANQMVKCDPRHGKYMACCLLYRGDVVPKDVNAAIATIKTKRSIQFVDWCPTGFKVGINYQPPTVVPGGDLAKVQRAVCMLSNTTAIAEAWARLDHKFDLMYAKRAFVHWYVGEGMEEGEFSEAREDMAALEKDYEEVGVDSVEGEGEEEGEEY", "sequence (Q6B856 whole entry)": "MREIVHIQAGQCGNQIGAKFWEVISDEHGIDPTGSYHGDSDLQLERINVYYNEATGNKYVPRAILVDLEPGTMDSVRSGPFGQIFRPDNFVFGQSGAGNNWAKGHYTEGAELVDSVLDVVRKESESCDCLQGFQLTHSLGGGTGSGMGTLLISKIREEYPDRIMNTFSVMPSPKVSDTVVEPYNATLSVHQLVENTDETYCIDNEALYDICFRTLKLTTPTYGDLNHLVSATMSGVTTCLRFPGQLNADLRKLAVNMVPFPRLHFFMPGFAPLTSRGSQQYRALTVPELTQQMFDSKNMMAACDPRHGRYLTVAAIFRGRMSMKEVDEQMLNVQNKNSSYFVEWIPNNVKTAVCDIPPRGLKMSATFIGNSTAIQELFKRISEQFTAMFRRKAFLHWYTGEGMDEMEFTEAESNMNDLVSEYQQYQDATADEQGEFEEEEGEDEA", "assay": "Fluorescence titration of tubulin binding (Scatchard plot)", "description": "Phosphocellulose purified bovine brain tubulin was employed throughout these biophysical experiments. Fluorescence titration for determining binding constants was performed according to Peyrot, V. et al., Biochemistry 31, 11125 (1992). […], at room temperature, 2 μM tubulin in 100 mM PIPES, 2 mM EGTA, 1 mM MgCl2 was excited at 278 nm, and the fluorescence emission spectra were recorded with bandwidths […]. The fluorescence emission intensity of noscapine at this excitation wavelength was negligible and at the concentration of noscapine used it gave no appreciable inner filter effect. The concentration of noscapine was raised in increments of 0.5 μM, until the decrease in the fluorescence intensity was saturated. The value of the dissociation constant and the number of sites were obtained from Scatchard plots using the equation, r/[L]free=n/K^d−r/Kd, where r is the ratio of the concentration of bound ligand to the total protein concentration and n is the number of binding sites. […] Microtubule assembly was recorded on a spectrophotometer with thermocontroler, The cuvettes (0.4 cm path) containing 100 mM PIPES, 2 mM EGTA, 1 mM MgCl2 and 1 mM GTP (G-PEM buffer), and 20 μM noscapine/DMSO were kept at room temperature before addition of tubulin and shifting to 37° C. […] The assembly was monitored by measuring the changes in turbidity at […]. intervals. […]"}, "human bladder tumors": {"system": "human bladder tumors", "settings": "nude mice; cited from earlier work"}, "OVA": {"system": "OVA", "assay": "OVA-specific immune responses of noscapine-treated tumor survivors after OVA in CFA", "type": "in vivo, B6 mice", "settings": "for IFNγ / cytokine production by lymph node CD4+ T cells / OVA-specific antibody responses: tumor survivors vs control mice, ELISA", "description": "(FIG. 2A) antibody responses were measured by ELISA with OVA coated microtiter plates,\n(FIG. 2B) IFNγ production by lymphnode cells was measured by ELlSA by comparison with recombinant IFNγ and\n(FIG. 2C) CTL responses were measured using ^51Cr labeled target cells.\nUntreated, control B6 mice and noscapine treated mice whose tumors regressed, were injected with OVA in CFA to test whether the tumor had induced tolerance to OVA. […] Moreover, the OVA-specific CTL response of mice that recovered from the tumor was enhanced by 10- to 30-fold compared to the response of non-tumor bearing controls (FIG. 2C) (14)."}, "HL-60 cells": {"system": "HL-60 cells", "assay": "Apoptosis of HL-60 cells, DAPI staining of nuclear chromatin", "type": "cell-based", "settings": "for Apoptic Cell Percentage: 24 hours", "description": "Morphological changes in the nuclear chromatin of HL-60 cells undergoing apoptosis were detected by staining with 4′,6-diamidino-2-phenylindole (DAPI). In brief, 0.5×10^6 to 3×10^6 cells were fixed with 4% glutaraledebyde, 0.2% Triton x-100, in PBS and incubated at room temperature for 10 min., then centrifuged at 1000×g for 10 min., resuspended in 20 μl 0.1% DAPI ethanol. Following 15 min, incubation at room temperature, at 10 μl aliquot was placed on a glass slide, and 400 cells per slide were scored for the incidence of apoptotic chromatin changes with a fluorescence microscope."}, "E.G7-OVA cells": {"system": "E.G7-OVA cells", "assay": "Inhibition of E.G7-OVA tumor growth, i.p. or i.g. dosing", "type": "in vivo, C57BL/6 mice", "description": "C57BL/6 mice were injected subcutaneously in the right flank with 2×10^6 E.G7-OVA cells. Three days later, mice were injected intraperitoneally, every day for three weeks, either with 200 μl saline (n=10), or with 3 mg noscapine dissolved in 200 μl saline (n=10). Third group of mice (n=10) was fed 3 mg noscapine via intragastric (i.g.) intubation using a 1 ml syringe fitted with a 20 gauge stainless steel ball point needle. After three weeks, all mice were sacrificed by cervical dislocation. Tumors were removed and weighed. Tumor weights were individually plotted and comparisons between control and treatment groups were analyzed by the Student's t test."}},
  "note": "Marks after values point to notes of the source that are not given here.",
  "data": [
    {"smiles": "COc1ccc2c(c1OC)C(=O)O[C@@H]2[C@H]1c2c(cc3c(c2OC)OCO3)CCN1C", "note": "[Noscapine]", "values": [
      {"measurement": "stoichiometry", "setting": "bovine brain tubulin; Scatchard plot", "result": "0.95±0.02 noscapine molecule per complex of tubulin subunit"},
      {"measurement": "quenching of tubulin fluorescence", "setting": "bovine brain tubulin; excitation 278 nm", "result": "fluorescence quenching of tubulin"},
      {"measurement": "regression of human bladder tumors", "setting": "human bladder tumors", "result": "caused regression"},
      {"measurement": "CTL responses after immunization with OVA in CFA", "setting": "OVA; tumor survivors treated with Noscapine vs control mice, 51Cr labeled target cells", "result": "enhanced"},
      {"measurement": "IFNγ / cytokine production by lymph node CD4+ T cells", "setting": "OVA", "result": "indistinguishable from control mice"},
      {"measurement": "OVA-specific antibody responses", "setting": "OVA", "result": "indistinguishable from control mice"},
      {"measurement": "IFNγ / cytokine production by lymph node CD4+ T cells", "setting": "OVA; listed as noscapine", "result": "identical"},
      {"measurement": "OVA-specific antibody responses", "setting": "OVA; listed as noscapine", "result": "identical"},
      {"measurement": "Apoptic Cell Percentage", "setting": "HL-60 cells; 20 μM in DMSO, two trials, result for each trial shown", "result": "30.17† %"},
      {"measurement": "Apoptic Cell Percentage", "setting": "HL-60 cells; 50 μM in DMSO", "result": 27, "unit": "%"},
      {"measurement": "Initiation of apoptosis", "setting": "HL-60 cells; DAPI staining", "result": "initiate apoptosis"},
      {"measurement": "tumor weight", "setting": "E.G7-OVA cells; 3 mg noscapine i.p. or i.g. every day for three weeks, vs saline", "result": "significantly reduced tumor weight"},
      {"measurement": "tumor cell growth and apoptosis of E.G7-OVA in vivo", "setting": "E.G7-OVA cells; given parenterally or by gastric gavage", "result": "arrested tumor cell growth and induced apoptosis"}
    ]}
  ]
}
